Columns and labels:
Type in all cases: physicochemical
Solubility test = conditions: for Amount of solvent for dissolving tested drug: about 10 mg tested drug
Protocol: It should be noted that each crystalline form of Form A, Form B and Form C has similar solubility properties. Hereinafter, Form A0, B0 and C were chosen only for illustrative purpose.
1. Solubility test of the crystalline Form A of Temozolomide (Form A0 prepared by the method of EXAMPLE 1). Solubility properties were assayed respectively by using DMSO, methanol, water, glacial acetic acid, 0.1M HCl, 0.1M NaOH and ethanol as the solvents.
2. Solubility test of the crystalline form B of Temozolomide (Form B0 prepared by the method of EXAMPLE 6). Solubility properties were assayed respectively by using DMSO, methanol, water, glacial acetic acid, 0.1M HCl, 0.1M NaOH and ethanol as the solvents.
3. Solubility test of the crystalline form C of Temozolomide (Form C prepared by the method of EXAMPLE 14). Solubility properties were assayed respectively by using DMSO, methanol, water, glacial acetic acid, 0.1M HCl, 0.1M NaOH and ethanol as the solvents.

[1] = Light exposure test (stability); conditions: for Appearance and color / Content / Drying loss / Related substances: light intensity 4500±500Lx; for Related substances: HPLC
Protocol: (§1) In the following test, related substances were determined as follows: HPLC method was used and chromatographic conditions were as follows: C18 column using octadecylsilane bonded silica gel as the filler, isocratic elution using methanol: 0.5% glacial acetic acid solution (10:90) as the mobile phase, and detection wavelength was at 254 nm.
Crystalline form A of Temozolomide (Form A0 prepared by the method of EXAMPLE 1) was exposed under conditions of light intensity of 4500±500Lx, sampled and determined on the 5th and 10th day.
Crystalline form B of Temozolomide (Form B0 prepared by the method of EXAMPLE 6) was placed, exposed under conditions of light intensity of 4500±500Lx, sampled and determined on the 5th and 10th day.
Crystalline Form C of Temozolomide (Form C prepared by the method of EXAMPLE 14) was placed, exposed under conditions of light intensity of 4500±500Lx, sampled and determined on the 5th and 10th day.

[2] = Accelerated test (stability); conditions: 40±2° C., relative humidity 75±5%; for Appearance and color / Content / Related substances: polyethylene film bag; for Related substances: HPLC
Protocol: as §1
Crystalline Form A of Temozolomide (Form A0 prepared by the method of EXAMPLE 1) was sealed by a polyethylene film bag, placed under conditions of 40±2° C. and a relative humidity of 75±5% for 6 months, sampled and determined at the end of the 1st,2nd, 3rd and 6th month.
Crystalline Form B of Temozolomide (Form B0 prepared by the method of EXAMPLE 6) was sealed with a polyethylene film bag and placed under conditions of 40±2° C. and a relative humidity of 75±5% for 6 months, sampled and determined at the end of the 1st, 2nd, 3rd and 6th month.
Crystalline Form C of Temozolomide (Form C prepared by the method of EXAMPLE 14) was sealed with a polyethylene film bag and placed under conditions of 40±2° C. and a relative humidity of 75±5% for 6 months, sampled and determined at the end of the 1st, 2nd, 3rd and 6th month.

[3] = High humidity test (stability); conditions: for Related substances: HPLC
Protocol: as §1
Crystalline Form A of Temozolomide (Form A0 prepared by the method of EXAMPLE 1) was placed in 25° C. incubator (relative humidity: 75±5%), sampled and determined on the 5th and 10th day.
Crystalline Form B of Temozolomide (Form B0 prepared by the method of EXAMPLE 6) was placed in 25° C. incubator (relative humidity: 75±5%), sampled and determined on the 5th and 10th day.
Crystalline Form C of Temozolomide (Form C prepared by the method of EXAMPLE 14) was placed in 25° C. incubator (relative humidity: 75±5%), sampled and determined on the 5th and 10th day.

[4] = High temperature test (stability); conditions: for Appearance and color / Content / Drying loss / Related substances: 60° C. incubator; for Related substances: HPLC
Protocol: as §1
Crystalline form A of Temozolomide (Form A0 prepared by the method of EXAMPLE 1) was placed in 60° C. incubator, sampled and determined on the 5th and 10th day.
Crystalline Form B of Temozolomide (Form B0 prepared by the method of EXAMPLE 6) was placed in 60° C. incubator, sampled and determined on the 5th and 10th day.
Crystalline Form C of Temozolomide (Form C prepared by the method of EXAMPLE 14) was placed in 60° C. incubator, sampled and determined on the 5th and 10th day.

[5] = 25° C., relative humidity 75±5%, 0th day
[6] = 25° C., relative humidity 75±5%, 5th day
[7] = 25° C., relative humidity 75±5%, 10th day

## Cn1nnc2c(C(N)=O)ncn2c1=O [Form B, Temozolomide]
Solubility test; solvent 0.1M HCl
  Amount of solvent for dissolving 1 g of tested drug: 800 mL
  Solubility: Slightly soluble
  Amount of solvent for dissolving tested drug: 8 mL
Solubility test; solvent 0.1M NaOH
  Amount of solvent for dissolving 1 g of tested drug: 300 mL
  Solubility: Slightly soluble
  Amount of solvent for dissolving tested drug: 3 mL
Solubility test; solvent DMSO
  Amount of solvent for dissolving 1 g of tested drug: 70 mL
  Solubility: sparingly
  Amount of solvent for dissolving tested drug: 0.6 mL
Solubility test; solvent Ethanol
  Amount of solvent for dissolving 1 g of tested drug: 5700 mL
  Solubility: Very slightly
  Amount of solvent for dissolving tested drug: 57 mL
Solubility test; solvent Glacial acetic acid
  Amount of solvent for dissolving 1 g of tested drug: 300 mL
  Solubility: Slightly soluble
  Amount of solvent for dissolving tested drug: 3.0 mL
Solubility test; solvent Methanol
  Amount of solvent for dissolving 1 g of tested drug: 900 mL
  Solubility: Slightly soluble
  Amount of solvent for dissolving tested drug: 9.0 mL
Solubility test; solvent Water
  Amount of solvent for dissolving 1 g of tested drug: 800 mL
  Solubility: Slightly soluble
  Amount of solvent for dissolving tested drug: 8.0 mL
[1]; 4500±500Lx, 10 days
  Stability in the light exposure test (conclusion): stable
[1]; 0th day
  Appearance and color: White powder
  Content: 99.97%
  Drying loss: 0.38%
  Related substances: Not detected
[1]; 5th day
  Appearance and color: White powder
  Content: 99.92%
  Drying loss: 0.33%
  Related substances: Not detected
[1]; 10th day
  Appearance and color: White powder
  Content: 99.95%
  Drying loss: 0.29%
  Related substances: Not detected
[2]; 6 months
  Stability in the accelerated test (conclusion): stable
[2]; 0th month
  Appearance and color: White powder
  Content: 99.97%
  Related substances: Not detected
[2]; 1st month
  Appearance and color: White powder
  Content: 99.71%
  Related substances: Not detected
[2]; 2nd month
  Appearance and color: White powder
  Content: 99.82%
  Related substances: Not detected
[2]; 3rd month
  Appearance and color: White powder
  Content: 99.73%
  Related substances: Not detected
[2]; 6th month
  Appearance and color: White powder
  Content: 99.85%
  Related substances: Not detected
[3]; 25° C., relative humidity 75±5%, 10 days
  Stability in the high-humidity test (conclusion): stable
[3]; [5]
  Appearance and color: White powder
  Content: 99.97%
  Weight gain of moisture absorption: 0%
  Related substances: Not detected
[3]; [6]
  Appearance and color: White powder
  Content: 99.63%
  Weight gain of moisture absorption: 0.37%
  Related substances: Not detected
[3]; [7]
  Appearance and color: White powder
  Content: 99.57%
  Weight gain of moisture absorption: 0.52%
  Related substances: Not detected
[3]; under the high-humidity condition
  Weight gain of moisture absorption (trend): slightly increased
[4]; 0th day
  Appearance and color: White powder
  Content: 99.97%
  Drying loss: 0.33%
  Related substances: Not detected
[4]; 5th day
  Appearance and color: White powder
  Content: 99.73%
  Drying loss: 0.27%
  Related substances: Not detected
[4]; 10th day
  Appearance and color: White powder
  Content: 99.61%
  Drying loss: 0.29%
  Related substances: Not detected
[4]; 60° C., 10 days
  Stability in the high-temperature test (conclusion): stable
